The IC50 is the midpoint of a concentration-inhibition curve. A word on the inhibition: it is the percentage by which the read-out fell short of the control.

These results are taken from ChEMBL document CHEMBL1138861, “Design, synthesis, and biological evaluation of phenylamino-substituted 6,11-dihydro-dibenzo[b,e]oxepin-11-ones and dibenzo[a,d]cycloheptan-5-ones: novel p38 MAP kinase inhibitors” (J Med Chem, 2006).

The structures appear in SMILES notation. Bounds are passed on as bounds.

In series [1] the target is Mitogen-activated protein kinase 14 (Homo sapiens, UniProt Q16539).
Series [2] addresses CYP3A4 (Homo sapiens, UniProt P08684). The series is described as follows: Inhibition of CYP3A4 at 10 uM. Format: ADME.
Series [3] concerns the target CYP2D6 (Homo sapiens, UniProt P10635). The series is described as follows: Inhibition of CYP2D6 at 10 uM. Format: ADME.
For series [4], the target named is CYP2C19 (Homo sapiens, UniProt P33261). The series can be described thus: Inhibition of CYP2C19 at 10 uM. Format: ADME.
Chain of CYP2C19 (P33261 whole entry): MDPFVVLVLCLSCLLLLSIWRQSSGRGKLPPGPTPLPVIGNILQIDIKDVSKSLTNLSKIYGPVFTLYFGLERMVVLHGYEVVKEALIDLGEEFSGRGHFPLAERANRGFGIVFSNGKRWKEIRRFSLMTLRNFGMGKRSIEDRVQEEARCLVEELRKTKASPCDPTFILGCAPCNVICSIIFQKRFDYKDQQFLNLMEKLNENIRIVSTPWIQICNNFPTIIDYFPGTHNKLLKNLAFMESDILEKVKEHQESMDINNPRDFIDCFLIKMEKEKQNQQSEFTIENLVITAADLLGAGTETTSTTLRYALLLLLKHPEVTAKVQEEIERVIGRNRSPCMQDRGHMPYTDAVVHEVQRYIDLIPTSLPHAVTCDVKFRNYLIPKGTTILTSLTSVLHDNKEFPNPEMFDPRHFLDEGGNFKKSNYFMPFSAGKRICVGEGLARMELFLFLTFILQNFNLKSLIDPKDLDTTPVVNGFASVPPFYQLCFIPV

Chain of Mitogen-activated protein kinase 14 (Q16539 whole entry): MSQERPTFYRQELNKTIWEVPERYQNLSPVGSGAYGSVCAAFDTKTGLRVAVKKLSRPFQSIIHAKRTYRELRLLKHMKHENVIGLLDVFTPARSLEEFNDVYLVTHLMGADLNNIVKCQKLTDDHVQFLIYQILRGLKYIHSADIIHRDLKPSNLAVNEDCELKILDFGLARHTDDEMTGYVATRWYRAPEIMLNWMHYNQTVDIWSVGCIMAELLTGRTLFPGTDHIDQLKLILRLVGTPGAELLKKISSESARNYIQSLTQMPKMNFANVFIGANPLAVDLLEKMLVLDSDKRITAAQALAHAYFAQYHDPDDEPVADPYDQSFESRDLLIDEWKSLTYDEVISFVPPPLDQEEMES
Chain of CYP2D6 (P10635 whole entry): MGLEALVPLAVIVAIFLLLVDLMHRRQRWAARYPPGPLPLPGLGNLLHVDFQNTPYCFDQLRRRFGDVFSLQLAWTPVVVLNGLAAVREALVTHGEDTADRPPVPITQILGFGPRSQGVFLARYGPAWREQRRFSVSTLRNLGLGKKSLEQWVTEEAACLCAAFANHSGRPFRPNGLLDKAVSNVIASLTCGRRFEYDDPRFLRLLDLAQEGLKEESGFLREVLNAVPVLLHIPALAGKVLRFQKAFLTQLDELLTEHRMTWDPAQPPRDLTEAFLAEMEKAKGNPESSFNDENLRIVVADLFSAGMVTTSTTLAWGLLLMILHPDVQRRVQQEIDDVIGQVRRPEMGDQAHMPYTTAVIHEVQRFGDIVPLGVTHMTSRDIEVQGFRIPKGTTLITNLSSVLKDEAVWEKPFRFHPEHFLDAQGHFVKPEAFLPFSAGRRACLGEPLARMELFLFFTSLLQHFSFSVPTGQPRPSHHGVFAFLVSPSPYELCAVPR
Chain of CYP3A4 (P08684 whole entry): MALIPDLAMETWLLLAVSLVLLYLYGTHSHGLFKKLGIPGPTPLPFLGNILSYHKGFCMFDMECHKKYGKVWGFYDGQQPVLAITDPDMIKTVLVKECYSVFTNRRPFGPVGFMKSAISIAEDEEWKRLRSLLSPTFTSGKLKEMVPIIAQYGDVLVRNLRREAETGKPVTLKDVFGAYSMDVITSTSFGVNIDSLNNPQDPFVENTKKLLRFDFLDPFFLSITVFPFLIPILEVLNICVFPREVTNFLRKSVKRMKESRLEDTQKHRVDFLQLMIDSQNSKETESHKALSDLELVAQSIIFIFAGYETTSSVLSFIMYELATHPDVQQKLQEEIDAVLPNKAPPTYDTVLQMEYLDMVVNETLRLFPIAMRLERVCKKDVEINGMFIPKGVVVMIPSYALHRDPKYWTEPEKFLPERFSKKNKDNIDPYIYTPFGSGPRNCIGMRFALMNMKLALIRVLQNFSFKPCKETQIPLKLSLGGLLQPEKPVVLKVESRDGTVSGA

In turn, `Nc1ccc(Nc2ccc3c(c2)OCc2ccccc2C3=O)c(F)c1` yielded an IC50 in series [1] of 1.32 µM.
With `C[S+]([O-])c1ccc(-c2nc(-c3ccncc3)c(-c3ccc(F)cc3)[nH]2)cc1` (centres undefined) [SB-203580], the inhibition at 10 µM in series [2] was 77%; in series [3], 73%; in series [4] it was 92%.
In turn, `Nc1ccc(Nc2ccc3c(c2)OCc2ccccc2C3=O)cc1` had an IC50 in series [1] greater than 5 µM.
On to `Nc1ccccc1Nc1ccc2c(c1)CCc1ccccc1C2=O`, for which the results for the inhibition at 10 µM in series [2], in series [3] and in series [4] were 70%, 42% and 53%, respectively.
In series [1], `O=C1c2ccccc2COc2cc(Nc3ccc(F)cc3F)ccc21` registered an IC50 of 0.239 µM.
Same read-out and setting: for `Nc1ccc(Nc2ccc3c(c2)CCc2ccccc2C3=O)cc1` the value was 1.17 µM; for `Cc1ccccc1C(=O)c1ccc(Nc2ccccc2)cc1Cl`, 0.19 µM.
Still for that read-out and setting: for `O=C1c2ccccc2COc2cc(Nc3ccc(Cl)cc3Cl)ccc21` the value was 3.02 µM; for `Nc1cccc(Nc2ccc3c(c2)OCc2ccccc2C3=O)c1`, 1.22 µM; for `O=C1c2ccccc2COc2cc(Nc3ccc(Br)cc3Br)ccc21`, greater than 5 µM.
`Nc1cc(F)ccc1Nc1ccc2c(c1)OCc1ccccc1C2=O` yielded an IC50 in series [1] of 0.038 µM.
The same measure, in the same setting: for `Nc1ccc(Nc2ccc3c(c2)OCc2ccccc2C3=O)c(N)c1` the value was greater than 5 µM; for `Nc1ccccc1Nc1ccc2c(c1)SCc1ccccc1C2=O`, 0.196 µM.
The same measure, in the same setting: for `Nc1ccccc1Nc1ccc2c(c1)COc1ccccc1C2=O` the value was 3.06 µM; for `Nc1ccccc1Nc1ccc2c(=O)c3ccccc3ccc2c1`, 1.06 µM.
